Data reported in US20230172924A1, “THERAPEUTIC AGENT FOR BREAST CANCER” (Eisai R&D Management Co., Ltd., priority 2020, published 2023).

Columns and labels:
[1] = tested on: human-derived breast cancer cell line MCF-7-hCYP19A1; assay: Cell number (CellTiter Glo 2.0 emission) of MCF-7-hCYP19A1 cells with Compound A and aromatase inhibitors; assay type: cell-based; settings: Compound A 1,000 nmol/L, 7 days culture with androstenedione, FGF2, FGF10, n=3
[2] = tested on: human breast cancer patient-derived tumor (OD-BRE-0438); assay: Antitumor effect of compound A and fulvestrant on OD-BRE-0438 patient-derived tumor subcutaneously transplanted in NOD-SCID mice; assay type: in vivo; settings: fulvestrant 250 mg/kg s.c. days 0 and 7, combination both; for Average tumor volume after starting drug administration, Day 0: Day 0, compound A 25 mg/kg oral once a day; for Average tumor volume after starting drug administration, Day 4: Day 4, compound A 25 mg/kg oral once a day; for Average tumor volume after starting drug administration, Day 7: Day 7, compound A 25 mg/kg oral once a day; for Average tumor volume after starting drug administration, Day 11: Day 11, compound A 25 mg/kg oral once a day; for Average tumor volume after starting drug administration, Day 14: Day 14, compound A 25 mg/kg oral once a day
[3] = tested on: human-derived breast cancer cell line MCF-7-hCYP19A1; assay: Antitumor effect of compound A and letrozole on subcutaneously transplanted MCF-7-hCYP19A1 tumor in ovariectomized BALB/c nude mice; assay type: in vivo; settings: letrozole 0.01 mg/mouse, or both, oral once a day; for Average tumor volume after starting drug administration, Day 0: Day 0, compound A 25 mg/kg; for Average tumor volume after starting drug administration, Day 4: Day 4, compound A 25 mg/kg; for Average tumor volume after starting drug administration, Day 7: Day 7, compound A 25 mg/kg; for Average tumor volume after starting drug administration, Day 11: Day 11, compound A 25 mg/kg; for Average tumor volume after starting drug administration, Day 14: Day 14, compound A 25 mg/kg
[4] = Table 4, anastrozole 10,000 nmol/L or both
[5] = Table 5, anastrozole 2,000 nmol/L or both
[6] = Table 3, letrozole 2,000 nmol/L or both

Structure (SMILES) | Emission value (count per second) [1, 4] | Emission value (count per second) [1, 5] | Emission value (count per second) [1, 6] | Average tumor volume after starting drug administration, Day 0 [2] | Average tumor volume after starting drug administration, Day 4 [2] | Average tumor volume after starting drug administration, Day 7 [2] | Average tumor volume after starting drug administration, Day 11 [2] | Average tumor volume after starting drug administration, Day 14 [2] | Average tumor volume after starting drug administration, Day 0 [3] | Average tumor volume after starting drug administration, Day 4 [3] | Average tumor volume after starting drug administration, Day 7 [3] | Average tumor volume after starting drug administration, Day 11 [3] | Average tumor volume after starting drug administration, Day 14 [3]
CC(C)(C#N)c1cc(Cn2cncn2)cc(C(C)(C)C#N)c1 [Anastrozole, anastrozole] | 1,443,072 count per second | 1,357,941 count per second | – | – | – | – | – | – | – | – | – | – | –
CNC(=O)n1ccc2cc(Oc3ccnc(NC(=O)c4ccc(C5CCN(CCO)CC5)cc4)c3)c(OCCOC)cc21 [Compound A, 5-((2-(4-(1-(2-Hydroxyethyl)piperidin-4-yl)benzamide)pyridin-4-yl)oxy)-6-(2-methoxyethoxy)-N-methyl-1H-indole-1-carboxamide] | 1,157,051 count per second | 1,157,051 count per second | 1,242,509 count per second | 148.6 mm^3 | 192.6 mm^3 | 211.2 mm^3 | 216.5 mm^3 | 264.3 mm^3 | 130.7 mm^3 | 155.5 mm^3 | 182.4 mm^3 | 224.4 mm^3 | 267.5 mm^3
C[C@]12CC[C@@H]3c4ccc(O)cc4C[C@@H](CCCCCCCCC[S+]([O-])CCCC(F)(F)C(F)(F)F)[C@H]3[C@@H]1CC[C@@H]2O (some centres unmarked) [Fulvestrant, fulvestrant] | – | – | – | 148.7 mm^3 | 172.2 mm^3 | 208.2 mm^3 | 207.4 mm^3 | 237.6 mm^3 | – | – | – | – | –
N#Cc1ccc(C(c2ccc(C#N)cc2)n2cncn2)cc1 [Letrozole, letrozole] | – | – | 1,410,920 count per second | – | – | – | – | – | 132.4 mm^3 | 147.3 mm^3 | 140.6 mm^3 | 159.6 mm^3 | 162.0 mm^3
